In patent US10202403B2, “Macrocyclic benzofuran compounds for the treatment of hepatitis C” (BRISTOL-MYERS SQUIBB COMPANY, priority 2014, dated 2019):

Assays:
[1] = system: genotype 1b (Con-1) HCV replicon; test: HCV replicon luciferase assay; format: cell-based, HCV genotype 1b (Con-1) in human Huh-7 cells; conditions: Hepatitis C virus, 72 h; genotype 1b replicon, Huh-7, Renilla luciferase, 3 days incubation
Description: Cell Lines. The cell lines used to evaluate compounds consist of a human hepatocyte derived cell line (Huh-7) that constitutively expresses a genotype 1b (Con-1) HCV replicon or a genotype 1b (Con-1) HCV replicon with an asparagine replacing the cysteine at amino acid 316, or a genotype 2a (JFH-1) replicon, containing a Renilla luciferase reporter gene. These cells were maintained in Dulbecco's modified Eagle medium (DMEM) containing 10% FBS, 100 U/mL penicillin/streptomycin and 1.0 mg/mL G418.
HCV replicon luciferase assay.To evaluate compound efficacy, titrated compounds were transferred to sterile 384-well tissue culture treated plates, and the plates were seeded with HCV replicon cells (50 μL at a density of 2.4×10^3 cells/well) in DMEM containing 4% FBS (final DMSO concentration at 0.5%). After 3 days incubation at 37° C., cells were analyzed for Renilla Luciferase activity using the EnduRen substrate (Promega cat #E6485) according to the manufacturer's directions. Briefly, the EnduRen substrate was diluted in DMEM and then added to the plates to a final concentration of 7.5 μM. The plates were incubated for at least 1 hour at 37° C., then read on a Viewlux Imager (PerkinElmer) using a luminescence program. The 50% effective concentration (EC50) was calculated using the four-parameter logistic formula noted above.

HCV = conditions: cited from earlier work

For `CNC(=O)c1c(-c2ccc(F)cc2)oc2ccc3c(c12)CCc1cccc(c1)CCO3` [Compound 1005], which EC50 [1] is on record?
The EC50 was over 10 µM.

With `CNC(=O)c1c(-c2ccc(F)cc2)oc2ccc3c(c12)CCCCCCCCCCCCO3` [Compound 1013] as the molecule, how does the EC50 [1] read?
Its EC50 is 1.51 µM.

With `CNC(=O)c1c(-c2ccc(F)cc2)oc2ccc3c(c12)CCCCCCCCCCO3` [Compound 1011] as the molecule, how does the EC50 [1] read?
The EC50 was 1.08 µM.

For `CNC(=O)c1c(-c2ccc(F)cc2)oc2ccc3c(c12)Cc1cccc(c1)COc1ccc2oc(-c4ccc(F)cc4)c(C(=O)NC)c2c1Cc1cccc(c1)CO3` [Compound 2004], which EC50 [1] is on record?
The EC50 was over 10 µM.

Which EC50 [1] does the source give for `CNC(=O)c1c(-c2ccc(F)cc2)oc2ccc3c(c12)Cc1cccc(n1)COc1ccc2oc(-c4ccc(F)cc4)c(C(=O)NC)c2c1Cc1cccc(n1)CO3` [Compound 2001] here?
Its EC50 is 6.67 µM.

Which EC50 [1] does the source give for `CNC(=O)c1c(-c2ccc(F)cc2)oc2ccc3c(c12)CCCCCCCCCCCO3` [Compound 1012] here?
Its EC50 is 0.53 µM.

For `C=C1COc2ccc3oc(-c4ccc(F)cc4)c(C(=O)NC)c3c2CC(=C)COc2ccc3oc(-c4ccc(F)cc4)c(C(=O)NC)c3c2C1` [Compound 2002], which EC50 [1] is on record?
The EC50 was 3.65 µM.

With `CNC(=O)c1c(-c2ccc(F)cc2)oc2ccc3c(c12)CCN(S(=O)(=O)c1ccc(C)cc1)CCO3` [Compound 1014] as the molecule, how does the EC50 [1] read?
Its EC50 is over 10 µM.

For `C=CC1Cc2c(ccc3oc(-c4ccc(F)cc4)c(C(=O)NC)c23)O1` (centres unmarked) [Compound 1002], which EC50 [1] is on record?
The EC50 was 0.672 µM.

For `CNC(=O)c1c(-c2ccc(F)cc2)oc2ccc3c(c12)CCCCCCCCO3` [Compound 1009], which EC50 [1] is on record?
Its EC50 is 2.08 µM.

For `CNC(=O)c1c(-c2ccc(F)cc2)oc2ccc3c(c12)CCCCCCCO3` [Compound 1008], which EC50 [1] is on record?
The EC50 was 1.82 µM.

For `CNC(=O)c1c(-c2ccc(F)cc2)oc2cc(N(CCO)S(C)(=O)=O)c(C3CC3)cc12` [HCV-796], which hepatic toxicity (HCV; extended dosing of the combination regimens, development suspended) is on record?
Its hepatic toxicity is “hepatic toxicity observed”.

And the “HCV RNA levels in patients” value (HCV; patients, single agent: transient decrease then rebound, more robust drop with interferon and ribavirin)?
Its value is “reduce HCV RNA levels in patients”.

For `CNC(=O)c1c(-c2ccc(F)cc2)oc2ccc3c(c12)CCOCCOCCO3` [Compound 1006], which EC50 [1] is on record?
The EC50 was over 10 µM.

Which EC50 [1] does the source give for `CNC(=O)c1c(-c2ccc(F)cc2)oc2ccc3c(c12)Cc1ccccc1-c1ccccc1CO3` [Compound 1003] here?
Its EC50 is 2.84 µM.

Which EC50 [1] does the source give for `CNC(=O)c1c(-c2ccc(F)cc2)oc2ccc3c(c12)Cc1cccc2cccc(c12)CO3` [Compound 1004] here?
The EC50 was over 10 µM.

With `CNC(=O)c1c(-c2ccc(F)cc2)oc2ccc3c(c12)CC=CCO3` [Compound 1001] as the molecule, how does the EC50 [1] read?
The EC50 was 2.08 µM.

With `CNC(=O)c1c(-c2ccc(F)cc2)oc2ccc3c(c12)CCCCCCO3` [Compound 1007] as the molecule, how does the EC50 [1] read?
The EC50 was 1.29 µM.

Which EC50 [1] does the source give for `CNC(=O)c1c(-c2ccc(F)cc2)oc2ccc3c(c12)CCCCCCCCCO3` [Compound 1010] here?
The EC50 was 1.63 µM.

With `CNC(=O)c1c(-c2ccc(F)cc2)oc2ccc3c(c12)CC1(CC1)COc1ccc2oc(-c4ccc(F)cc4)c(C(=O)NC)c2c1CC1(CC1)CO3` [Compound 2005] as the molecule, how does the EC50 [1] read?
Its EC50 is 0.931 µM.
